Source: patent US20050112573A1, “Method of detecting toxic substance” (priority 2001, published 2005)
Like-named read-outs stand apart in the source and are kept apart here.

Experiments:
Format in all cases: cell-based, Saccharomyces cerevisiae W303
[1] = tested on: promoter of yeast gene YCR102c
From the text: (§1) The inventors of the present application understood that the induction of certain yeast genes by toxic substances is caused by the activation of the promoters of the genes by the toxic substances. Thus, the inventors prepared a vector that comprised a polynucleotide sequence comprising the promoter of the yeast gene, which sequence is operably linked to a polynucleotide encoding a marker protein; and transformed yeast cells with the vector. […] The working examples hereinafter illustrate the preparation of such vectors, transformation of yeast cells by use of said vectors, and the detection of toxic substances by use of the transformed cells.
(§2) Promoter assay is a method for determining variations of the level of intracellular genes without destroying cells on the basis of the level of expressed marker genes instead of the expressed mRNA. The gene selected to detect a chemical substance is expressed in the absence of chemical substances, and thus a marker protein also occurs in the absence of chemical substances. In the method according to the present invention, the behavior of yeast genes on the addition of test materials is determined on the basis of the level of expressed marker protein so that the presence or the absence, and the kind of toxic chemical substances are predicted. Thus, it is desired that the production of marker proteins is lower in the absence of chemical substances, and the production of marker proteins is higher in the presence of chemical substances.
(§3) Type YEp shuttle vector pYES2 (pYES2, Cat no: V825-20, Invirtogen Corporation, USA), which can be replicated both in E. coli. and yeast was used as vector (R. W. Old, S. B. Primrose Principles of Gene Manipulation 5th Ed., BAIFUKAN CO., LTD, pp138-165, pp.234-263, 2000). The portion of vector PQBI 63 (Cat no.54-0082, Wako Pure Chemical Industries, Ltd.) corresponding to a marker protein GFP was used as the polynucleotide encoding GFP (SEQ ID No: 6). First, the GFP polynucleotide was inserted into the multiple cloning sites of pYES2 to give a vector. Thereafter, the GALL promoter of pYES2 was replaced with the polynucleotide comprising the promoter sequence of the intended yeast gene YCR102c (SEQ ID No: 2) to give an intended plasmid vector. Suitable restriction enzymes were selected, and the insertion of the polynucleotide comprising GFP and the promoter sequence was conducted.
(§4) Next, the yeast Saccharomyces cerevisiae W303 was transformed with the resultant plasmid vector according to the following procedures: • 1) Incubating the yeast Saccharomyces cerevisiae W303 in 200 ml of SD medium under shaking until OD 660 reaches 0.5; • 2) Suspending the collected cells in 5 ml of TE-buffer; • 3) Adding 250 μL of 2.5M lithium acetate; • 4) Dispending each 300 μl, adding 10 μl of above plasmid vector thereto, then incubating the suspensions at 30° C. for 30 minutes; • 5) Adding 700 μl of 50% PEG4000, and incubating the mixture under shaking at 30° C. for 60 minutes; • 6) Giving heat shock (42° C., 5 minutes), and then immediately cooling the mixture; • 7) Washing the mixture twice with 1M sorbitol; and • 8) Seeding it on agar plates made of minimum essential medium.
(§5) The cells of SC-YCR102C-pQBI as prepared in Example 3 were contacted to one of the following compounds. The yeast cells SC-YCR102C-pQBI were incubated at 25° C. in SD medium (Yeast nitrogen base without amino acids (Difco 0919-15)+glucose+amino acids (adenine, histidine, tryptophan)). One of toxic chemical substances as shown below was added to the cells at logarithmic growth phase, and then the cells were further incubated for two hours.

[2] = tested on: promoter of yeast gene YKL071w
From the text: as §1, §2
as §3, with “pQBI” for “PQBI”, “GAL1” for “GALL”, “YKL071w” for “YCR102c”, “1)” for “2)”
as §4
as §5, with “SC-YKL071W-pQBI” for “SC-YCR102C-pQBI”, “2” for “3”

[3] = tested on: promoter of yeast gene YLL057c; conditions: for expression of GFP: SC-YLL057C-pQBI cells, summary of Table 13
From the text: as §1, §2
as §3, with “YLL057c” for “YCR102c”, “4)” for “2)”
as §4
as §5, with “SC-YLL057C-pQBI” for “SC-YCR102C-pQBI”, “5” for “3”

[4] = cells SC-YCR102C-pQBI, 2 hours incubation with the substance at the concentration printed in its row (column Concentrations), GFP fluorescence vs control without chemical
[5] = SC-YKL071W-pQBI cells, 25° C., two hours, each substance at the concentration given
[6] = cells SC-YLL057C-pQBI, 2 hours incubation with the substance at the concentration printed in its row (column Concentrations), GFP fluorescence vs control without chemical

Row | Compound | Fluorescence [1, 4] | Fluorescens [2, 5] | Fluorescence [3, 6] | other results
1 | CCCCC(CC)COC(=O)c1ccccc1C(=O)OCC(CC)CCCC (stereo not shown) | − (the number of the cells having a higher fluorescence than the control was under 1%) | − (the number of the cells having a higher fluorescence than the control was under 1%) | − (the number of the cells having a higher fluorescence than the control was under 1%) | –
2 | CN(C)C(=S)SSC(=S)N(C)C [(10), Tetramethylthiuram disulfide] | – | – | – | expression of GFP ([1]; SC-YCR102C-pQBI cells, summary of Table 11): induced the expression of GFP; expression of GFP ([2]; SC-YKL071W-pQBI cells, summary of Table 10): induced the expression of GFP
3 | CCN(CC)C(=O)SCc1ccc(Cl)cc1 [S-4-Chlorobenzyl-N,N-diethylthiocarbamate] | − (the number of the cells having a higher fluorescence than the control was under 1%) | − (the number of the cells having a higher fluorescence than the control was under 1%) | − (the number of the cells having a higher fluorescence than the control was under 1%) | –
4 | CC(=O)O.Cc1nc(N)cc2[nH]c3ccccc3c12 [Trp-P-2 (acetate)] | – | – | – | Fluorescence [1]: − (key: −: the number of the cells having a higher fluorescence than the control was under 1%; +: between 1% and 2%; ++: 2% or more); Fluorescens [2]: − (key: −: the number of the cells having a higher fluorescence than the control was under 1%; +: between 1% and 2%; ++: 2% or more); Fluorescence [3]: − (key: −: the number of the cells having a higher fluorescence than the control was under 1%; +: between 1% and 2%; ++: 2% or more)
5 | O=S(=O)([O-])[O-].[Cu+2] [copper sulfate (II)] | – | – | – | Fluorescence [1]: − (key: −: the number of the cells having a higher fluorescence than the control was under 1%; +: between 1% and 2%; ++: 2% or more); Fluorescens [2]: − (key: −: the number of the cells having a higher fluorescence than the control was under 1%; +: between 1% and 2%; ++: 2% or more); Fluorescence [3]: − (key: −: the number of the cells having a higher fluorescence than the control was under 1%; +: between 1% and 2%; ++: 2% or more)
6 | CCOC(=O)CC(SP(=S)(OC)OC)C(=O)OCC (stereo not shown) [malathon] | − (the number of the cells having a higher fluorescence than the control was under 1%) | − (the number of the cells having a higher fluorescence than the control was under 1%) | − (the number of the cells having a higher fluorescence than the control was under 1%) | –
7 | [CH3][Hg][Cl] [methylmercury chloride] | − (the number of the cells having a higher fluorescence than the control was under 1%) | − (the number of the cells having a higher fluorescence than the control was under 1%) | − (the number of the cells having a higher fluorescence than the control was under 1%) | –
8 | [Cl][Ni][Cl] [nickel (II) chloride] | – | – | – | Fluorescence [1]: − (key: −: the number of the cells having a higher fluorescence than the control was under 1%; +: between 1% and 2%; ++: 2% or more); Fluorescens [2]: − (key: −: the number of the cells having a higher fluorescence than the control was under 1%; +: between 1% and 2%; ++: 2% or more); Fluorescence [3]: − (key: −: the number of the cells having a higher fluorescence than the control was under 1%; +: between 1% and 2%; ++: 2% or more)
9 | [K+].[K+].[O]=[Cr](=[O])([O-])[O][Cr](=[O])(=[O])[O-] [potassium bichromate] | − (the number of the cells having a higher fluorescence than the control was under 1%) | − (the number of the cells having a higher fluorescence than the control was under 1%) | − (the number of the cells having a higher fluorescence than the control was under 1%) | –
10 | [Cl][Sn]([c]1ccccc1)([c]1ccccc1)[c]1ccccc1 [triphenyltin chloride] | − (the number of the cells having a higher fluorescence than the control was under 1%) | − (the number of the cells having a higher fluorescence than the control was under 1%) | − (the number of the cells having a higher fluorescence than the control was under 1%) | –
11 | CdCl2 [(2)] | − (the number of the cells having a higher fluorescence than the control was under 1%) | − (the number of the cells having a higher fluorescence than the control was under 1%) | ++ (2% or more) | expression of GFP [3]: induced the expression of GFP
12 | HgCl2 [(3)] | − (the number of the cells having a higher fluorescence than the control was under 1%) | − (the number of the cells having a higher fluorescence than the control was under 1%) | − (the number of the cells having a higher fluorescence than the control was under 1%) | –
13 | Na2As [(1)] | − (the number of the cells having a higher fluorescence than the control was under 1%) | − (the number of the cells having a higher fluorescence than the control was under 1%) | ++ (2% or more) | expression of GFP [3]: induced the expression of GFP
14 | manganese ethylenebis(dithiocarbamate) [(8)] | − (the number of the cells having a higher fluorescence than the control was under 1%) | − (the number of the cells having a higher fluorescence than the control was under 1%) | − (the number of the cells having a higher fluorescence than the control was under 1%) | –
